23 molecules from patent US20120010206A1, “IMIDAZOLOPYRIDINE COMPOUNDS USEFUL FOR THE TREATMENT OF DEGENERATIVE AND INFLAMMATORY DISEASES” (priority 2006, published 2012) can be followed below.

Each structure is given as a SMILES string.

Assay [1] deals with MMP1 expression from activated SFs (RASF). The assay can be described thus: MMP assay: MMP1 expression (ELISA) by TNF-α-triggered RASFs. The conditions noted are these: RASF triggered with TNFα, MMP1 ELISA after 48 hrs, semi-quantitative score. In kind it is cell-based. The procedure:
A 384-well format ELISA for measurement of MMP1 is developed. Various primary antibodies are tested, as well as various ELISA protocols. The following protocol is developed and validated to measure MMP1 levels in SF supernatant in 384 well plates: white Lumitrac 600 384 well plates (Greiner) are coated with 2 μg/mL anti-MMP1 antibody MAB1346 (Chemicon). The antibody is diluted in buffer 40 (1.21 g Tris base (Sigma), 0.58 g NaCl (Calbiochem) and 5 mL 10% NaN3 (Sigma) in 1 L milliQ water and adjusted to pH 8.5). After overnight incubation at 4° C., plates are washed with PBS (80 g NaCl, 2 g KCl (Sigma), 11.5 g Na2HPO4.7H2O and 2 g KH2PO4 in 10 L milliQ; pH 7.4) and blocked with 100 μL/well Casein buffer (2% Casein (VWR International) in PBS). Next day, casein buffer is removed from ELISA plates and replaced by 50 μL/well EC buffer (4 g casein, 2.13 g Na2HPO4 (Sigma), 2 g bovine albumin (Sigma), 0.69 g NaH2PO4.H2O (Sigma), 0.5 g CHAPS (Roche), 23.3 g NaCl, 4 mL 0.5 M EDTA pH 8 (Invitrogen), 5 mL 10% NaN3 in 1 L milliQ and adjusted to pH 7.0). 0.25 mM DTT (Sigma) is added to the thawed sample plates. After removal of the EC buffer, 20 μL of sample is transferred to the ELISA plates. After overnight incubation at 4° C. plates are washed twice with PBS and once with PBST (PBS with 0.05% Tween-20 (Sigma)) and incubated with 35 μL/well biotinylated anti-MMP1 antibody solution (R&D). This secondary antibody is diluted in buffer C (0.82 g NaH2PO4.H2O, 4.82 g Na2HPO4, 46.6 g NaCl, 20 g bovine albumin and 4 ml, 0.5M EDTA pH 8 in 2 L milliQ and adjusted to pH 7.0) at a concentration of 5 μg/mL. After 2 h of incubation at RT, plates are washed as described above and incubated with 50 μL/well streptavidin-HRP conjugate (Biosource). Streptavidin-HRP conjugate is diluted in buffer C at a concentration of 0.25 μg/mL. After 45 min, plates are washed as described above and incubated for 5 min with 50 μL/well BM Chem ELISA Substrate (Roche). Readout is performed on the Luminoscan Ascent Luminometer (Labsystems) with an integration time of 200 msec or with an Envision reader (Perkin Elmer).
SFs were acquired at passage 1 from a commercial supplier (Cell applications, Inc.). SFs are cultured in DMEM supplemented with 10% heat-inactivated FBS, 1× penicillin/streptomycin (Invitrogen) at 37° C., 10% CO2 until passage 6. Aliquots of the cells are frozen and cryopreserved in liquid nitrogen. Starting from a cryopreserved aliquot, cells are further expanded by sub-culturing cells at 1/3 ratio every week. Cells between passage 10 and 12 are routinely used in compound testing according to the following protocol.
Starting from the compound master stocks (all at 10 mM concentration in 100% DMSO) a 3-fold serial dilution is made in 96-well plates in 100% DMSO. Then, plates are further diluted 45-fold in M199 medium supplemented with 1% heat-inactivated FBS to obtain a intermediate work stock.
At day 1, RASFs are seeded in 96 well plates (flat bottom, tissue culture treated, Greiner) at a density of 3000 cells/well in complete synovial growth medium (Cell Applications). Day 5, the medium is completely removed from the cells, and replaced by 81 μL of M199 medium supplemented with 1% heat-inactivated FBS followed by addition of 10 μL compound out of the intermediate work stock. After an incubation period of 90 minutes, which allows the compounds to equilibrate and enter the cells, cells are stimulated with either TNF-α or ‘complex trigger’. TNF-α trigger is added in a volume of […] to obtain final concentration of 10 ng/mL. For that, TNF-α stock (PeproTech) at 10 μg/mL was diluted to 100 ng/mL TNF-α in M199 medium supplemented with 1% FBS. ‘Complex trigger’ mix is added in a volume of 20 μL to obtain a final concentration of 12.5%. For that, ‘complex trigger’ mix, is diluted to 80% with M199 medium supplemented with 1% FBS. […]

Assay [2] has as its target T1, TAK1-TAB1 fusion protein (Homo sapiens, UniProt O43318).
T1 construct: purchased Upstate 14-600
T1 sequence (O43318 with tags, fused parts or gaps limits assumed): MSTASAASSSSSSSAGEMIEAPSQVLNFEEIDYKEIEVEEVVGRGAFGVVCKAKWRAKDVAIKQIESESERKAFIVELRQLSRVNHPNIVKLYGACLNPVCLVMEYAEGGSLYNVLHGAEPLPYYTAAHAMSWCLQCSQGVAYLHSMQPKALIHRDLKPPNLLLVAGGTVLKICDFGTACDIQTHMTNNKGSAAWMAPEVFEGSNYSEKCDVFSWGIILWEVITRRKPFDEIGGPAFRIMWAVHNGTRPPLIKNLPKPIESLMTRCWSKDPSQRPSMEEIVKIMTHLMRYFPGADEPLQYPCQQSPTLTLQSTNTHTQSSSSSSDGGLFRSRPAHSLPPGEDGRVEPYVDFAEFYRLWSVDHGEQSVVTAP
The assay can be described thus: In vitro TAK1 kinase assay (33P-ATP, casein substrate). In kind it is biochemical. The conditions noted are these: semi-quantitative score, at least two independent experiments. In a few lines:
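Radiometric assay with active TAK1-TAB1 fusion protein (0.5 mU), 0.1 mg/mL casein, ATP at 5 µM plus [33P]-γ-ATP, in 10 mM MOPS pH 7.0, 1 mM EDTA. Reactions ran 90 min at 30 °C, were stopped with phosphoric acid and filter-counted; percent inhibition from ≥2 experiments gave semi-quantitative potency scores.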

In the case of `NC(=O)c1ccc(-c2ccc(Nc3ccc(N4CCN(C5CCCCC5)CC4)cc3)c3nccn23)cc1` [Compound 77], the EC50 in assay [1] was in the range of 1000 to 3000 nM. Moreover, in assay [2], the half-inhibitory concentration (IC50) was 101 to 1000 nM.
In turn, `CN1CCN(c2ccc(Nc3ccc(-c4ccc(C(N)=O)cc4)n4ccnc34)cc2F)CC1` [Compound 63] yielded an EC50 in assay [1] of more than 3000 nM. This molecule came in with an IC50 in assay [2] of 101 to 1000 nM.
Regarding `CC(C)N1CCN(c2ccc(Nc3ccc(-c4ccc5c(c4)CNC5=O)n4ccnc34)cc2C(F)(F)F)CC1` [Compound 27, 5-(8-(4-(4-isopropylpiperazin-1-yl)-3-(trifluoromethyl)phenylamino)imi-dazo[1,2-a]pyridin-5-yl)isoindolin-1-one], the EC50 in assay [1] is more than 3000 nM. The molecule further displayed an IC50 in assay [2] of 101 to 1000 nM.
In assay [1], `CC(C)N1CCN(c2ccc(Nc3ccc(-c4csc(C(N)=O)c4)n4ccnc34)cc2F)CC1` [Compound 9, 4-{8-[3-Fluoro-4-(4-isopropyl-piperazin-1-yl)-phenylamino]-imidazo[1,2-a]pyridin-5-yl}-thiophene-2-carboxylic acid amide] had an EC50 of 1000 to 3000 nM. The IC50 in assay [2] fell in the range of 1000 to 3000 nM.
`O=C1NCc2cc(-c3ccc(Nc4ccc(S(=O)(=O)c5ccccc5)cc4)c4nccn34)ccc21` [Compound 21, 5-(8-(4-(phenylsulfonyl)phenylamino)imi-dazo[1,2-a]pyridin-5-yl)isoindolin-1-one] yielded an EC50 in assay [1] of 101 to 1000 nM. Further, in assay [2], the IC50 fell in the range of 101 to 1000 nM.
In assay [1], `CC(C)N1CCN(c2ccc(Nc3ccc(-c4cn[nH]c4)n4ccnc34)cc2)CC1` [Compound 6, [4-(4-Isopropyl-piperazin-1-yl)-phenyl]-[5-(1H-pyrazol-4-yl)-imidazo[1,2-a]pyridin-8-yl]-amine] registered an EC50 of 101 to 1000 nM. This molecule had an IC50 in assay [2] of 101 to 1000 nM.
In turn, `CCN1CCC[C@H]1CNC(=O)c1ccc(Nc2ccc(-c3ccc4c(c3)CNC4=O)n3ccnc23)cc1` [Compound 49, (S)-N-((1-ethylpyrrolidin-2-yl)methyl)-4-(5-(1-oxoisoindolin-5-yl)imidazo[1,2-a]pyridin-8-ylamino)benzamide] yielded an EC50 in assay [1] of more than 3000 nM. Moreover, the IC50 in assay [2] is less than 100 nM.
`CCN1CCN(C(=O)c2ccc(Nc3ccc(-c4ccc5c(c4)CNC5=O)n4ccnc34)cc2)CC1` [Compound 53, 5-(8-(4-(4-ethylpiperazine-1-carbonyl)phenylamino)imidazo [1,2-a]pyridin-5-yl)isoindolin-1-one] gave an EC50 in assay [1] of more than 3000 nM. The molecule further returned an IC50 in assay [2] of less than 100 nM.
On to `O=C1NCc2cc(-c3ccc(Nc4ccc(N5CCOCC5)cc4)c4nccn34)ccc21` [Compound 13, 5-(8-(4-morpholinophenyl-amino)imidazo [1,2-a]pyridin-5-yl)isoindolin-1-one], for which the EC50 in assay [1] lay within 1000 to 3000 nM. In assay [2], this molecule came in with an IC50 of 101 to 1000 nM.
Molecule `O=c1cc(-c2ccc(Nc3ccc(C4CCN(CCF)CC4)cc3)c3nccn23)cc[nH]1` [Compound 108, 4-(8-{4-[1-(2-Fluoro-ethyl)-piperidin-4-yl]-phenylamino}-imidazo[1,2-a]pyridin-5-yl)-1H-pyridin-2-one] gave an EC50 in assay [1] of 1000 to 3000 nM. In assay [2], this molecule yielded an IC50 of 101 to 1000 nM.
For `CN(C)c1ccc(CNS(=O)(=O)c2ccc(Nc3ccc(-c4ccc5c(c4)CNC5=O)n4ccnc34)cc2)cc1` [Compound 25, N-(4-(dimethylamino)benzyl)-4-(5-(1-oxoisoindolin-5-yl)imidazo[1,2-a]pyridin-8-ylamino)benzene sulfonamide], in that order: 1000 to 3000 nM and 101 to 1000 nM.
With `CC(C)N1CCN(c2ccc(Nc3ccc(-c4cc[nH]c(=O)c4)n4ccnc34)cc2C(F)(F)F)CC1` [Compound 106, 4-{8-[4-(4-Isopropyl-piperazin-1-yl)-3-trifluoromethyl-phenylamino]-imidazo[1,2-a]pyridin-5-yl}-1H-pyridin-2-one], the EC50 in assay [1] lay in the range of 101 to 1000 nM. In addition, in assay [2], the IC50 was more than 3000 nM.
The molecule `COc1cc(-c2ccc(Nc3ccc(N4CCN(C(C)C)CC4)cc3)c3nccn23)ccc1O` [Compound 95] showed an EC50 in assay [1] of more than 3000 nM. In addition, the IC50 in assay [2] is 101 to 1000 nM.
Molecule `O=c1cc(-c2ccc(Nc3ccc(N4CCN(C5CCCCC5)CC4)cc3)c3nccn23)cc[nH]1` [Compound 90] displayed an EC50 in assay [1] of 101 to 1000 nM. Further, the IC50 in assay [2] lay in the range of 101 to 1000 nM.
Regarding `COCCN(C)C(=O)c1ccc(Nc2ccc(-c3ccc4c(c3)CNC4=O)n3ccnc23)cc1` [Compound 38, N-(2-methoxyethyl)-N-methyl-4-(5-(1-oxoisoindolin-5-yl)imidazo[1,2-a]pyridin-8-ylamino)benzamide], the EC50 in assay [1] is more than 3000 nM. In assay [2], this molecule displayed an IC50 of 101 to 1000 nM.
The matching figures for `Fc1cc(Nc2ccc(-c3cn[nH]c3)n3ccnc23)ccc1N1CCOCC1` [Compound 69]: 1000 to 3000 nM and 101 to 1000 nM.
For the molecule `CNC(=O)C1CCN(C(=O)c2ccc(Nc3ccc(-c4ccc5c(c4)CNC5=O)n4ccnc34)cc2)CC1` [Compound 41, N-methyl-1-(4-(5-(1-oxoisoindolin-5-yl)imidazo[1,2-a]pyridin-8-ylamino)benzoyl) piperidine-4-carboxamide], the EC50 in assay [1] was more than 3000 nM. For the same molecule, in assay [2], the IC50 lay in the range of 101 to 1000 nM.
`CCC(CC)N1CCN(c2ccc(Nc3ccc(-c4cn[nH]c4)n4ccnc34)cc2)CC1` [Compound 89]: the EC50 in assay [1] is more than 3000 nM. The same molecule came in with an IC50 in assay [2] of 101 to 1000 nM.
In the case of `CC(C)N1CCC(c2ccc(Nc3ccc(-c4cc[nH]c(=O)c4)n4ccnc34)cc2)CC1` [Compound 96], in assay [1], the EC50 lay in the range of 1000 to 3000 nM. The molecule also returned an IC50 in assay [2] of 101 to 1000 nM.
`CC(=O)Nc1ccc(-c2ccc(Nc3ccc(N4CCN(C(C)C)CC4)cc3)c3nccn23)cc1` [Compound 70] had an EC50 in assay [1] of more than 3000 nM. The same molecule came in with an IC50 in assay [2] of more than 3000 nM.
Take `O=c1cc(-c2ccc(Nc3ccc(N4CCN(C5CCC5)CC4)cc3)c3nccn23)cc[nH]1` [Compound 85]: in assay [1], the EC50 was 101 to 1000 nM. The molecule also yielded an IC50 in assay [2] of 101 to 1000 nM.
Molecule `CCCN1CCN(c2ccc(Nc3ccc(-c4ccc(C(N)=O)cc4)n4ccnc34)cc2)CC1` [Compound 76] registered an EC50 in assay [1] of 101 to 1000 nM. This molecule registered an IC50 in assay [2] of 101 to 1000 nM.
Consider `NC(=O)c1ccc(-c2ccc(Nc3ccc(N4CCOCC4)cc3)c3nccn23)cc1` [Compound 1, 4-[8-(4-Morpholin-4-yl-phenylamino)-imidazo[1,2-a]pyridin-5-yl]-benzamide], for which the EC50 in assay [1] was 101 to 1000 nM. The molecule also registered an IC50 in assay [2] of 1000 to 3000 nM.

By EC50 is commonly meant the midpoint of the concentration-response curve. The low end stands for an effect from little substance, the high end for a need for much substance. The term IC50 denotes the midpoint of a concentration-inhibition curve. A lower IC50 goes with higher potency.
